Tested on: resistant strains of fungi (Candida spp., Microsporium, Trich. mentagrophytes, Aspergillus niger)
Assay: Antifungal activity on the resistant strains
Assay type: cell-based
Conditions: resistant fungal strains

| Structure (SMILES) | antifungal activity, in words |
| --- | --- |
| C[C@@H]1[C@H](O)[C@@H](C)/C=C/C=C/C=C/C=C/C=C/C=C/C=C/[C@H](O[C@@H]2O[C@H](C)[C@@H](O)[C@H](N)[C@@H]2O)C[C@@H]2O[C@](O)(C[C@@H](O)C[C@@H](O)[C@H](O)CC[C@@H](O)C[C@@H](O)CC(=O)O[C@H]1C)C[C@H](O)[C@H]2C(=O)O [amphotericin] | did not exert antifungal activity |
| C[C@@H]1[C@H](O)[C@@H](C)/C=C/C=C/CC/C=C/C=C/C=C/C=C/C(O[C@H]2O[C@H](C)[C@@H](O)[C@H](N)[C@@H]2O)CC2O[C@](O)(CC(O)C(O)CCC(O)CC(O)CC(O)CC(=O)O[C@H]1C)CC(O)C2C(=O)O (some centres unmarked) [nystatin] | did not exert antifungal activity |
